How the values were obtained:
[1] = test system: pressure-overload model of pulmonary arterial hypertension; settings: cited from earlier work
[2] = test system: δ-sarcoglycan knockout (dSG KO) mouse model of limb-girdle muscular dystrophy; experiment: cardiac function (Echo, cardiac output) in dSG KO mice; format: in vivo
Source text: (§1) Applicants explored the possibility that TPr activity may contribute to pathology in muscular dystrophy. In preliminary studies, the effects of blocking TPr activity in a δ-sarcoglycan knockout (dSG KO) mouse model of limb-girdle muscular dystrophy (LGMD). […] The inhibition of LV epicardial fibrosis may have particular applicability to DMD patients, where cardiac fibrosis typically begins in the sub-epicardium of the left ventricular (LV) free wall and progresses to include the remaining LV free wall and septum. […] Therefore, it is believed that TPr activity contributes to pathology in muscular dystrophy.
(§2) Example 4 utilized West/Carrier Muscular Dystrophy Animal Models (Delta-sarcoglycan knock-out mice (sgcd−/−)). Mice devoid of DSG develop cardiomyopathy and MD with signs of progressive disease such as necrosis, muscular regeneration, inflammation and fibrosis within the first 3 months of life. Mice that are homozygous for the targeted mutation are viable, fertile and normal in size. No gene product (protein) is immunodetected in skeletal muscle microsomal preparations. At 8 weeks of age there is an onset of sudden mortality, with a 50% survival rate at 28 weeks. Elevated creatine kinase serum levels are indicative of striated muscle degeneration. […] At 12 weeks of age, cardiac muscle tissue also begins to show degeneration, inflammatory infiltration and perivascular fibrosis. Myofiber membranes have permeability defects as assessed by Evans blue dye uptake into myofiber cytoplasm. […] A major function of dystrophin is to strengthen the sarcolemma by cross-linking the ECM with the cytoskeleton. […] They work to connect sarcolemma to cytoplasmic actin cytoskeleton. Dysfunction produces membrane instability, elevated [Ca2+]I and disrupted NO signaling. γ- and δ-SG form a core necessary for delivery/retention of other SG to the membrane.
(§3) While the DSG KO (sgcd−/−) mice lack functional delta-sarcoglycan, the MD phenotype is milder than the human disease. […]

[3] = test system: δ-sarcoglycan knockout (dSG KO) mouse model of limb-girdle muscular dystrophy; experiment: plasma cardiac troponin I in dSG KO mice; format: in vivo; settings: given in drinking water
Source text: as §1
Example 4 utilized West/Carrier Muscular Dystrophy Animal Models (Delta-sarcoglycan knock-out mice (sgcd−/−)). Mice devoid of DSG develop cardiomyopathy and MD with signs of progressive disease such as necrosis, muscular regeneration, inflammation and fibrosis within the first 3 months of life. Mice that are homozygous for the targeted mutation are viable, fertile and normal in size. No gene product (protein) is immunodetected in skeletal muscle microsomal preparations. […] Myofiber membranes have permeability defects as assessed by Evans blue dye uptake into myofiber cytoplasm. […]
The term “cTNI” means plasma cardiac troponin I. The term “KO” means knockout. […] Plasma cardiac troponin I (cTNI) is highly specific and sensitive for myocardial tissue and can be measured rapidly. […]

[4] = test system: δ-sarcoglycan knockout (dSG KO) mouse model of limb-girdle muscular dystrophy; experiment: cardiac histology (Masson's trichrome) in dSG KO mice; format: in vivo
Source text: as §1, §2
FIGS. 9A (dSGKO-vehicle) and 9B (DsGKO-ifetroban) show cardiac histology in dSG KO males. Less fibrosis seen in ifetroban treated RV. Shown is Masson's trichrome at 4× for gross histology. […]

dSG KO mice [5] = experiment: spontaneous exercise (voluntary wheel running) in dSG KO mice; format: in vivo, mouse; settings: 6 month old dSG KO males; wheel access for 10 days after 4.5M of treatment; FIG. 5
Source text: as §2
FIG. 5 provides spontaneous exercise date for 6 month old males. […]

dSG KO mice [6] = experiment: wire hang in dSG mice; format: in vivo, mouse
Source text: as §2
Veh and ife-treated groups were NS tested against each other. N in parentheses. “ife”=ifetroban.
FIG. 8 depicts wire hang time for mice tested.

dSG KO mice [7] = experiment: intestinal histology (H&E) in dSG KO mice; format: in vivo, mouse; settings: dSG KO mice vs vehicle-treated dSG KO mice; FIG. 13
Source text: as §2, with “membrane. […]” for “membrane.”

dSG KO mice [8] = experiment: survival of dSG KO mice; format: in vivo, mouse
Source text: Applicants explored the possibility that TPr activity may contribute to pathology in muscular dystrophy. In preliminary studies, the effects of blocking TPr activity in a δ-sarcoglycan knockout (dSG KO) mouse model of limb-girdle muscular dystrophy (LGMD). […] The inhibition of LV epicardial fibrosis may have particular applicability to DMD patients, where cardiac fibrosis typically begins in the sub-epicardium of the left ventricular (LV) free wall and progresses to include the remaining LV free wall and septum. […] Therefore, it is believed that TPr activity contributes to pathology in muscular dystrophy. Example 4 utilized West/Carrier Muscular Dystrophy Animal Models (Delta-sarcoglycan knock-out mice (sgcd−/−)). Mice devoid of DSG develop cardiomyopathy and MD with signs of progressive disease such as necrosis, muscular regeneration, inflammation and fibrosis within the first 3 months of life. Mice that are homozygous for the targeted mutation are viable, fertile and normal in size. No gene product (protein) is immunodetected in skeletal muscle microsomal preparations. At 8 weeks of age there is an onset of sudden mortality, with a 50% survival rate at 28 weeks. Elevated creatine kinase serum levels are indicative of striated muscle degeneration. […] Myofiber membranes have permeability defects as assessed by Evans blue dye uptake into myofiber cytoplasm. […]

[9] = test system: utrophin/dystrophin double knockout (DKO) mice, a model of severe DMD; experiment: survival of utrophin/dystrophin DKO mice; format: in vivo, mouse
Source text: as §1
dSG KO mice, chosen for their cardiac phenotype, are a model of LGMD, but DMD which occurs in approximately 1:3500 male births (1), is far more common a disease than LGMD. The mdx mouse model of DMD poorly replicates the shortened life expectancy, cardiac fibrosis, and cardiomyopathy seen in DMD patients. The utrophin/dystrophin DKO model had significant mortality by 10 weeks, although treatment with the TPr antagonist ifetroban led to 100% survival to this predetermined timepoint. Although TPr antagonism may prevent spontaneous death in DMD, due to severe kyphosis and frailty we were not able to obtain much useful cardiac data with the DKO model of DMD.
as §3

[10] = test system: utrophin/dystrophin double knockout (DKO) mice; experiment: wire hang in DKO males; format: in vivo, mouse; settings: DKO males at 10 weeks; vs vehicle; FIG. 15
Source text: While the DSG KO (sgcd−/−) mice lack functional delta-sarcoglycan, the MD phenotype is milder than the human disease. Since utrophin, a dystrophin-related protein, is able to compensate for the loss of dystrophin, loss of utrophin and dystrophin (DKO) results in a more severe phenotype. […] The mice are difficult to generate and care for, and often die prematurely. Ifetroban treatment was started at 3 weeks upon weaning.
FIG. 1 are photos of a vehicle-treated compared with an ifetroban-treated DKO mouse. FIG. 1A is a photograph of a vehicle-treated DKO Mouse at 10 weeks. FIG. 1B is a photograph of an ifetroban-treated DKO mouse at 10 weeks. The ability to wrap the tail around the wire is dependent on muscle function. A reason the DKO mice are really hard to evaluate in the wire hang is that they have such severe scoliosis that their hind paws are very close to their front paws, so raising their hind paws to get a 4-limbed grip is not difficult despite their affliction.
FIG. 15 are graphs showing wire hang in DKO males at 10 weeks (ifetroban-treated (“ife”) versus vehicle).

[11] = dSG KO mice, given in drinking water, preliminary studies

CC(=O)Oc1ccccc1C(=O)O [aspirin]
cardiac function [1]: no effect | right ventricular fibrosis [1]: no effect

CCCCCNC(=O)c1coc([C@H]2[C@@H](Cc3ccccc3CCC(=O)O)[C@@H]3CC[C@H]2O3)n1 [ifetroban, [1S-(1α,2α,3α,4α)]-2-[[3-[4-[(Pentylamino)carbonyl]-2-oxazolyl]-7-oxabicyclo[2.2.1]hept-2-yl]methyl]-benzenepropanoic acid]
3 month Echo data: cardiac dysfunction ([2]; dSG KO males at 3 months, FIG. 3): prevents cardiac dysfunction | decline in cardiac function [2, 11]: prevents a decline in cardiac function | cardiac output ([2]; male dSG KO mice at 3 months, FIG. 4, compared to vehicle): improved similar to WT levels | plasma cardiac troponin I levels [3]: normalizing elevated plasma cardiac troponin I levels | cardiac histology: fibrosis in RV ([4]; dSG KO males, Masson's trichrome 4× (FIG. 9) or 2× (FIG. 10)): less fibrosis | cardiac histology: fibrosis in left and right ventricle ([4]; dSG KO males, Masson's trichrome, 10×, FIG. 11): Less fibrosis | formation of cardiac fibrosis [4, 11]: limits the formation of cardiac fibrosis | spontaneous exercise (voluntary wheel running): skeletal function deficit (dSG KO mice [5]): seen to a less extent | wire hang time (dSG KO mice [6]; dSG mice at 6 months, FIG. 6): improved wire hang time | wire hang time (longest time) (dSG KO mice [6]; male mice at 6 months, FIG. 8): difficult to measure any difference | fibrosis in intestinal tissue (dSG KO mice [7]): less fibrosis | survival (dSG KO mice [8]): significantly improved survival | 10-week survival ([9]; DKO mice, treatment started at 3 weeks upon weaning): 100% | survival time ([9]; all DKO mice, FIG. 17): > 70 days | average wire hang time [10]: significantly longer average hang times | cardiac function [1]: improves cardiac function | right ventricular fibrosis [1]: dramatically decreases right ventricular fibrosis

O=C(O)/C=C/c1ccc(Cn2ccnc2)cc1 [ozagrel]
cardiac function [1]: no effect | right ventricular fibrosis [1]: no effect
